From publication PMC9506480, “Synthesis and Evaluation of Antiproliferative Activity, Topoisomerase IIα Inhibition, DNA Binding and Non-Clinical Toxicity of New Acridine–Thiosemicarbazone Derivatives” (Pharmaceuticals, 2022)

These compounds were tested on HepG2 (human hepatocellular carcinoma) (assay: Alamar blue cytotoxicity assay, HepG2). Details: 72 h incubation.
Format: cell-based
Experimental: The in vitro cytotoxic activity of the compounds (Table 1) was evaluated against cancer cell lines HCT116 (human colon carcinoma), HepG2 (human hepatocellular carcinoma), B16F10 (murine melanoma carcinoma) and non-cancerous cell line MRC-5 (human lung fibroblast) using the Alamar blue assay after 72 h of incubation; doxorubicin (DOX) was used as a positive control. The unsubstituted derivatives on the acridine cores were encoded as CL, and the disubstituted derivatives as DL.
The human cancer cell lines HCT116 (colon carcinoma) and HepG2 (hepatocellular carcinoma), the mouse cancer cell line B16-F10 (melanoma), and the non-cancerous human cell line MRC-5 (lung fibroblast) were obtained from the American Type Culture Collection (ATCC, Manassas, VA, USA) and cultured according to the ATCC animal cell culture guide. All cell lines tested negative for mycoplasma using a mycoplasma stain kit.
Cell viability was measured using the Alamar blue assay, as previously described. Cells were seeded in 96-well plates for all experiments. The compounds were dissolved in dimethyl sulfoxide (DMSO, Sigma-Aldrich) and added to each well in eight serial concentrations ranging from 0.19 to 25 μg/mL. As a positive control, doxorubicin was used. After 72 h of treatment, 20 μL of resazurin (0.312 mg/mL) was added to each well. A SpectraMax 190 Micro-plate Reader was used to measure absorbances at 570 and 595 nm (Molecular Devices, Sunnyvale, CA, USA). Nonlinear regression with 95% confidence intervals (CI 95%) was used to calculate the inhibitory concentration of 50% (IC50) using GraphPad Prism software (Intuitive Software for Science; San Diego, CA, USA).

Q: Which IC50 does the source give for `Oc1ccc(/C=N/NC(=S)Nc2c3ccccc3nc3ccccc23)cc1` [CL-07, (E)-N-(acridin-9-yl)-2-(4-hydroxybenzylidene)hydrazine-1-carbothioamide] here?
A: Its IC50 is 50.7 µM.

Q: Which IC50 does the source give for `COc1ccc2nc3cc(Cl)ccc3c(NC(=S)N/N=C/c3ccccc3)c2c1` [DL-01, (E)-2-benzylidene-N-(6-chloro-2-methoxyacridin-9-yl)hydrazine-1-carbothioamide] here?
A: The IC50 was 21.9 µM.

Q: Which IC50 does the source give for `COc1ccc2nc3cc(Cl)ccc3c(NC(=S)N/N=C/c3cccc(O)c3)c2c1` [DL-08, (E)-N-(6-chloro-2-methoxyacridin-9-yl)-2-(3-hydroxybenzylidene)hydrazine-1-carbothioamide] here?
A: Its IC50 is 21.3 µM.
